Data as given in the supplement of paper PMC4862054.

How the values were obtained:
Conditions in all cases: incubation time: 72 h
[1] = tested on: SK-BR-3; assay: normalised viability (% of control), CellTiter-Blue; higher = more viable cells (100 = DMSO, 0 = benzethonium chloride kill control)
Method: (§1)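 DSRT, CellTiter-Blue viability, 72 h incubation. Signal is normalised to DMSO and benzethonium chloride controls. Value is the normalised response at dose 1.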

[2] = tested on: MFM-223; assay: as above
Method: as §1

[3] = tested on: BT-549; assay: as above
Method: as §1

[4] = tested on: HCC1937; assay: as above
Method: as §1

[5] = tested on: MDA-MB-436; assay: as above
Method: as §1

[6] = tested on: HCC1143; assay: as above
Method: as §1

[7] = tested on: MDA-MB-468; assay: as above
Method: as §1

[8] = tested on: CAL-148; assay: as above
Method: as §1

[9] = tested on: HCC1599; assay: as above
Method: as §1

[10] = tested on: MDA-MB-231; assay: as above
Method: as §1

[11] = tested on: HDQ-P1; assay: as above
Method: as §1

[12] = tested on: DU-4475; assay: as above
Method: as §1

[13] = tested on: Hs578T; assay: as above
Method: as §1

[14] = tested on: BT-474; assay: as above
Method: as §1

[15] = tested on: CAL-120; assay: as above
Method: as §1

[16] = tested on: CAL-85-1; assay: as above
Method: as §1

[17] = tested on: MDA-MB-453; assay: as above
Method: as §1

[18] = tested on: CAL-51; assay: as above
Method: as §1

[19] = tested on: SK-BR-3; assay: normalised response (% of control), CellTiter-Glo; higher = more viable cells (100 = DMSO, 0 = benzethonium chloride kill control)
Outline: (§2)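 The table gives the normalised signal for a single concentration in each entry. Breast cancer cell lines were seeded (20 µl suspension) into 384-well plates holding compound at 5 concentrations in 10-fold steps over a compound-specific 10,000-fold range and incubated 72 h, then read for CellTox Green fluorescence (485/520 nm) and CellTiter-Glo luminescence. Normalisation on each plate used 0.1 % DMSO (100) and a positive kill control (0).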

[20] = tested on: MFM-223; assay: as above
Outline: as §2

[21] = tested on: BT-549; assay: as above
Outline: as §2

[22] = tested on: HCC1937; assay: as above
Outline: as §2

[23] = tested on: MDA-MB-436; assay: as above
Outline: as §2

[24] = tested on: HCC1143; assay: as above
Outline: as §2

[25] = tested on: MDA-MB-468; assay: as above
Outline: as §2

[26] = tested on: CAL-148; assay: as above
Outline: as §2

[27] = tested on: HCC1599; assay: as above
Outline: as §2

[28] = tested on: MDA-MB-231; assay: as above
Outline: as §2

[29] = tested on: HDQ-P1; assay: as above
Outline: as §2

[30] = tested on: DU-4475; assay: as above
Outline: as §2

[31] = tested on: Hs578T; assay: as above
Outline: as §2

[32] = tested on: BT-474; assay: as above
Outline: as §2

[33] = tested on: CAL-120; assay: as above
Outline: as §2

[34] = tested on: CAL-85-1; assay: as above
Outline: as §2

[35] = tested on: MCF-10A; assay: as above
Outline: as §2

[36] = tested on: MDA-MB-453; assay: as above
Outline: as §2

[37] = tested on: CAL-51; assay: as above
Outline: as §2

Structure (SMILES) | normalised viability [1] | normalised viability [2] | normalised viability [3] | normalised viability [4] | normalised viability [5] | normalised viability [6] | normalised viability [7] | normalised viability [8] | normalised viability [9] | normalised viability [10] | normalised viability [11] | normalised viability [12] | normalised viability [13] | normalised viability [14] | normalised viability [15] | normalised viability [16] | normalised viability [17] | normalised viability [18] | normalised response [19] | normalised response [20] | normalised response [21] | normalised response [22] | normalised response [23] | normalised response [24] | normalised response [25] | normalised response [26] | normalised response [27] | normalised response [28] | normalised response [29] | normalised response [30] | normalised response [31] | normalised response [32] | normalised response [33] | normalised response [34] | normalised response [35] | normalised response [36] | normalised response [37]
CC(C)C[C@H](NC(=O)[C@H](Cc1ccccc1)NC(=O)c1cnccn1)B(O)O [Bortezomib] (0.1 nM) | 88.8% | 101% | 82.3% | 82.9% | 103% | 98.8% | 91.8% | 104% | 122% | 91.9% | 92.2% | 129% | 96.4% | 75.1% | 98.8% | 104% | 101% | 97.3% | 101% | 103% | 91.5% | 96.2% | 93.4% | 100% | 89.8% | 95.7% | 95.9% | 101% | 93.6% | 103% | 104% | 98.6% | 102% | 95.6% | 113% | 103% | 90.9%
CS(=O)(=O)OCCCCOS(C)(=O)=O [Busulfan] (10 nM) | 97% | 88.7% | 92.2% | 78.8% | 105% | 100% | 102% | 131% | 105% | 112% | 106% | 104% | 92% | 82.1% | 112% | 105% | 117% | 88.3% | 111% | 102% | 103% | 95.5% | 89.5% | 99.3% | 97.3% | 96% | 84.3% | 99.2% | 95.6% | 106% | 101% | 102% | 92.4% | 104% | 104% | 108% | 87.1%
C#Cc1cccc(Nc2ncnc3cc(OC)c(OCCCCCCC(=O)NO)cc23)c1 [CUDC-101] (1 nM) | 82.3% | 78% | 96% | 85.9% | 96.4% | 79.9% | 94.4% | 97.1% | 115% | 94.9% | 85.7% | 97.5% | 94.9% | 108% | 79.4% | 77.3% | 88% | 111% | 90.8% | 98.5% | 101% | 96.6% | 98.6% | 102% | 93.8% | 98.2% | 108% | 109% | 97% | 99.1% | 101% | 96.5% | 100% | 94.8% | 90.8% | 108% | 74.1%
